In US9451771B2, “Compositions and methods to attract the brown marmorated stink bug (BMSB), Halyomorpha halys” (United States of America as Represented by the Secretary of …, priority 2012, dated 2016):

Test system: brown marmorated stink bug (BMSB), Halyomorpha halys
Test: Synergy trials for attraction of BMSB to #10 and MDT, black pyramid traps
Type: in vivo
Experimental: Synergy trials for attraction of BMSB to #10 and methyl (2E,4E,6Z)-decatrieonate (MDT): From 6 Apr. to 23 Oct. […] Va. (3 replicates), we tested the following four treatments for attraction of BMSB adults and nymphs, using a full-sized black pyramid trap adapted for BMSB (see above): (1) #10 lure (Table 4) replaced every 2 weeks; (2) #3 lure, MDT, (Sterling International, Spokane, Wash.; ˜119 mg loading; see text below), replaced every 4 weeks; (3) #14 lure, in which #10 and MDT lures hung together in trap, replaced as above for each lure; and (4) no lure (control).
The MDT lure obtained from Sterling International was extracted with pentane which yielded 420 mg of crude product. According to TLC analysis on silica using dichloromethane, the extracted material contained MTD (Rf 0.46) plus unknown chemical(s) with Rf 0.20. This material was flash chromatographed on silica with hexane:dichloromethane, 1:1, to obtain 119 mg of pure MDT. The identity of MDT was re-confirmed by comparison of the gas chromatographic retention time and mass-spectrum with those of a standard prepared according to Khrimian (Khrimian, A., Tetrahedron, 61: 3651-3657 (2005)).
Traps were checked and collected twice-weekly in Beltsville, and weekly in Arden, as described previously, and the treatments were re-randomized at each collection. Field trapping results were summed by approximately two-week intervals, and the totals for each replicate analyzed by ANOVA and additionally with Tukey's HSD multiple comparisons at α=0.05 if the overall 1-way ANOVA F-test was significant at α=0.05. In addition, a two-way ANOVA with interaction was tested to determine if the combined lure provoked a different level of attractiveness (a significant interaction) than would be expected from a combination of the attractiveness of each separate lure type. Such an interaction, with numbers exceeding the expected attraction for the combined lure, represents a true synergy of the two lures.

[1] = Arden, WV 2012, 15May-23 Oct, TOTAL
[2] = Arden, WV 2012, Aug2-13, 11-day total
[3] = Arden, WV 2012, Aug13-27, 14-day total
[4] = Arden, WV 2012, Aug27-Sep10, 14-day total
[5] = Arden, WV 2012, July2-17, 15-day total
[6] = Arden, WV 2012, July17-Aug2, 16-day total
[7] = Arden, WV 2012, June4-19, 15-day total
[8] = Arden, WV 2012, June19-July2, 13-day total
[9] = Arden, WV 2012, May 16-23, 7-day total
[10] = Arden, WV 2012, May23-Jun4, 14-day total
[11] = Arden, WV 2012, Oct9-23, 14-day total
[12] = Arden, WV 2012, Sep10-24, 14-day total
[13] = Arden, WV 2012, Sep24-Oct9, 17-day total
[14] = Arden, WV, 3 replicates, 20 May through 23 Oct. 2012
[15] = Arden, WV, 20 May through 23 Oct. 2012
[16] = Beltsville, MD 2012, 4-22 May, 18-day total, 4 traps/trtmt
[17] = Beltsville, MD 2012, 5-19 June, 14-day total, 4 traps/trtmt
[18] = Beltsville, MD 2012, 5-23Oct, 18-day total, 4 traps/trtmt
[19] = Beltsville, MD 2012, 6-20 April, 14-day total, 4 traps/trtmt
[20] = Beltsville, MD 2012, 6APR-23OCT, Total
[21] = Beltsville, MD 2012, 6APR-23OCT, Total, 4 traps/trtmt
[22] = Beltsville, MD 2012, 7-21 Sept, 14-day total, 4 traps/trtmt
[23] = Beltsville, MD 2012, 10-24 Aug, 14-day total, 4 traps/trtmt
[24] = Beltsville, MD 2012, 13-27 July
[25] = Beltsville, MD 2012, 13-27 July, 14-day total, 4 traps/trtmt
[26] = Beltsville, MD 2012, 19-29 June
[27] = Beltsville, MD 2012, 19-29 June, 10-day total, 4 traps/trtmt
[28] = Beltsville, MD 2012, 20 April-4 May, 14-day total, 4 traps/trtmt
[29] = Beltsville, MD 2012, 21Sep-5 Oct
[30] = Beltsville, MD 2012, 21Sep-5 Oct, 14-day total, 4 traps/trtmt
[31] = Beltsville, MD 2012, 24Aug-7Sept
[32] = Beltsville, MD 2012, 24Aug-7Sept, 14-day total, 4 traps/trtmt
[33] = Beltsville, MD 2012, 27 July-10 Aug
[34] = Beltsville, MD 2012, 27 July-10 Aug, 14-day total, 4 traps/trtmt
[35] = Beltsville, MD 2012, 29 June-13 July
[36] = Beltsville, MD 2012, 29 June-13 July, 14-day total, 4 traps/trtmt
[37] = Beltsville, MD, 4 replicates, 6 April through 23 Oct. 2012
[38] = Beltsville, MD, 6 April through 23 Oct. 2012

`CCC\C=C/C=C/C=C/C(=O)OC` [Lure #3, Methyl (2E,4E,6Z)-decatrienoate] was tested, and the adults captured [1] was 999, the “adults captured (% of total)” value [1] was 17.9% and the nymphs captured [1] was 386. The “nymphs captured (% of total)” value [1] was 18.4%, the “adults captured (% of total)” value (Arden, WV 2012, Aug2-13) was 10.40% and the “nymphs captured (% of total)” value (Arden, WV 2012, Aug2-13) was 9.5%. For the same compound, the adults captured [2] was 7, the nymphs captured [2] was 38 and the “adults captured (% of total)” value (Arden, WV 2012, Aug13-27) was 3.10%. The “nymphs captured (% of total)” value (Arden, WV 2012, Aug13-27) was 10.0%, the adults captured [3] was 4 and the nymphs captured [3] was 51. For the same compound, the “adults captured (% of total)” value (Arden, WV 2012, Aug27-Sep10) was 1.60%, the “nymphs captured (% of total)” value (Arden, WV 2012, Aug27-Sep10) was 42.8% and the adults captured [4] was 3. For the same compound, the nymphs captured [4] was 68, the “adults captured (% of total)” value (Arden, WV 2012, July2-17) was 0% and the “nymphs captured (% of total)” value (Arden, WV 2012, July2-17) was 5.0%. For the same compound, the adults captured [5] was 0, the nymphs captured [5] was 8 and the “adults captured (% of total)” value (Arden, WV 2012, July17-Aug2) was 0%. The “nymphs captured (% of total)” value (Arden, WV 2012, July17-Aug2) was 22.2%, the adults captured [6] was 0 and the nymphs captured [6] was 8. The “adults captured (% of total)” value (Arden, WV 2012, June4-19) was 0%, the adults captured [7] was 0 and the nymphs captured [7] was 0. For the same compound, the “adults captured (% of total)” value (Arden, WV 2012, June19-July2) was 0%, the “nymphs captured (% of total)” value (Arden, WV 2012, June19-July2) was 0% and the adults captured [8] was 0. The nymphs captured [8] was 0, the “adults captured (% of total)” value (Arden, WV 2012, May 16-23) was 0% and the adults captured [9] was 0. For the same compound, the nymphs captured [9] was 0, the “adults captured (% of total)” value (Arden, WV 2012, May23-Jun4) was 0% and the adults captured [10] was 0. For the same compound, the nymphs captured [10] was 0, the “adults captured (% of total)” value (Arden, WV 2012, Oct9-23) was 28.90% and the “nymphs captured (% of total)” value (Arden, WV 2012, Oct9-23) was 60.5%. For the same compound, the adults captured [11] was 120, the nymphs captured [11] was 20 and the “adults captured (% of total)” value (Arden, WV 2012, Sep10-24) was 12.70%. The “nymphs captured (% of total)” value (Arden, WV 2012, Sep10-24) was 23.9%, the adults captured [12] was 333 and the nymphs captured [12] was 135. For the same compound, the “adults captured (% of total)” value (Arden, WV 2012, Sep24-Oct9) was 25.20%, the “nymphs captured (% of total)” value (Arden, WV 2012, Sep24-Oct9) was 25.7% and the adults captured [13] was 532. The nymphs captured [13] was 58, the “Season-long total captures of BMSB adults” value [14] was 999 b and the “Season-long total captures of BMSB nymphs” value [14] was 386 b. For the same compound, the “Season-long captures of BMSB adults, share of TOTAL” value [15] was 17.9%, the “Season-long captures of BMSB nymphs, share of TOTAL” value [15] was 18.4% and the “adults captured (% of total)” value (Beltsville, MD 2012, 4-22 May) was 2.10%. The adults captured [16] was 2, the nymphs captured [16] was 0 and the “adults captured (% of total)” value (Beltsville, MD 2012, 5-19 June) was 4.20%. For the same compound, the “nymphs captured (% of total)” value (Beltsville, MD 2012, 5-19 June) was 25.10%, the adults captured [17] was 6 and the nymphs captured [17] was 63. For the same compound, the “adults captured (% of total)” value (Beltsville, MD 2012, 5-23Oct) was 17.50%, the “nymphs captured (% of total)” value (Beltsville, MD 2012, 5-23Oct) was 35.70% and the adults captured [18] was 6. The nymphs captured [18] was 5, the “adults captured (% of total)” value (Beltsville, MD 2012, 6-20 April) was 10.20% and the adults captured [19] was 6. For the same compound, the nymphs captured [19] was 0, the “adults captured (% of total)” value [20] was 10.40% and the “nymphs captured (% of total)” value [20] was 28.30%. For the same compound, the adults captured [21] was 1203, the nymphs captured [21] was 1823 and the “adults captured (% of total)” value (Beltsville, MD 2012, 7-21 Sept) was 20.30%. The “nymphs captured (% of total)” value (Beltsville, MD 2012, 7-21 Sept) was 30.00%, the adults captured [22] was 314 and the nymphs captured [22] was 36. The “adults captured (% of total)” value (Beltsville, MD 2012, 10-24 Aug) was 4.60%, the “nymphs captured (% of total)” value (Beltsville, MD 2012, 10-24 Aug) was 14.80% and the adults captured [23] was 7. For the same compound, the nymphs captured [23] was 212, the “adults captured (% of total)” value [24] was 0.00% and the “nymphs captured (% of total)” value [24] was 20.30%. For the same compound, the adults captured [25] was 0, the nymphs captured [25] was 13 and the “adults captured (% of total)” value [26] was 0.00%. The “nymphs captured (% of total)” value [26] was 1.30%, the adults captured [27] was 0 and the nymphs captured [27] was 6. The “adults captured (% of total)” value (Beltsville, MD 2012, 20 April-4 May) was 21.90%, the adults captured [28] was 7 and the nymphs captured [28] was 0. For the same compound, the “adults captured (% of total)” value [29] was 27.90%, the “nymphs captured (% of total)” value [29] was 40.50% and the adults captured [30] was 440. The nymphs captured [30] was 17, the “adults captured (% of total)” value (Beltsville, MD 2012, 22 May-5 June) was 2.90% and the “nymphs captured (% of total)” value (Beltsville, MD 2012, 22May-5June) was 38.90%. For the same compound, the adults captured (Beltsville, MD 2012, 22 May-5 June, 14-day total, 4 traps/trtmt) was 3, the nymphs captured (Beltsville, MD 2012, 22May-5June, 14-day total, 4 traps/trtmt) was 7 and the “adults captured (% of total)” value [31] was 22.20%. For the same compound, the “nymphs captured (% of total)” value [31] was 41.80%, the adults captured [32] was 393 and the nymphs captured [32] was 1018. The “adults captured (% of total)” value [33] was 6.10%, the “nymphs captured (% of total)” value [33] was 30.80% and the adults captured [34] was 14. The nymphs captured [34] was 406, the “adults captured (% of total)” value [35] was 8.60% and the “nymphs captured (% of total)” value [35] was 14.50%. For the same compound, the adults captured [36] was 5, the nymphs captured [36] was 40 and the “Season-long total captures of BMSB adults” value [37] was 1203 b. For the same compound, the “Season-long total captures of BMSB nymphs” value [37] was 1823 b, the “Season-long captures of BMSB adults, share of TOTAL” value [38] was 20.4% and the “Season-long captures of BMSB nymphs, share of TOTAL” value [38] was 28.3%.
